# Laboratory results from patent US20240132484A1, “BROAD SPECTRUM ANTIVIRAL COMPOUNDS TARGETING THE SKI COMPLEX” (priority 2020, published 2024).
# Values joined by “and” are separate entries in the source; they are usually repeats but may differ in a detail not shown here. Identical values can stand only once. Like-named read-outs stand apart in the source and are kept apart here.
# How the values were obtained:
# [1] = system: SARS2; type: cell-based, SARS-CoV-2; conditions: for Infection Data, Average, Mean percentage infection relative to DMSO control: Average of Exp 1 (SMW491) and Exp 2 (SMW492); for Infection Data, Percentage Infection Relative to Appropriate DMSO Control: single well, avg background subtraction
# [2] = system: cells (nuclei count); conditions: for Toxicity Data, Average, Mean percentage relative to DMSO control: Average of Exp 1 (SMW491) and Exp 2 (SMW492); for Toxicity Data, Percentage Relative to Appropriate DMSO Control: single well
compound,measurement,setting,value
COc1ccc(CNCCc2ccccc2F)c(OCC(O)CN2CCN(C)CC2)c1 (stereo not drawn) [SILCS46],SARS2 antiviral activity,[1],lower activity
same,"Infection Data, Average, Mean percentage infection relative to DMSO control","[1]; n=4, 1 uM",72.12%
same,"Infection Data, Average, Mean percentage infection relative to DMSO control","[1]; n=4, 5 uM",0.77%
same,"Infection Data, Average, Mean percentage infection relative to DMSO control","[1]; n=4, 10 uM",21.64%
same,"Infection Data, Average, Mean percentage infection relative to DMSO control","[1]; n=4, 25 uM",0.03%
same,"Infection Data, Average, Mean percentage infection relative to DMSO control","[1]; n=4, 50 uM",0.84%
same,"Infection Data, Percentage Infection Relative to Appropriate DMSO Control","[1]; Exp 1 (SMW491), 1 uM",73.61% and 132.86%
same,"Infection Data, Percentage Infection Relative to Appropriate DMSO Control","[1]; Exp 1 (SMW491), 5 uM",−0.70% and 0.86%
same,"Infection Data, Percentage Infection Relative to Appropriate DMSO Control","[1]; Exp 1 (SMW491), 10 uM",−2.65% and −0.77%
same,"Infection Data, Percentage Infection Relative to Appropriate DMSO Control","[1]; Exp 1 (SMW491), 25 uM",−3.35% and 0.11%
same,"Infection Data, Percentage Infection Relative to Appropriate DMSO Control","[1]; Exp 1 (SMW491), 50 uM",2.55% and −4.15%
same,"Infection Data, Percentage Infection Relative to Appropriate DMSO Control","[1]; Exp 2 (SMW492), 1 uM",49.01% and 32.97%
same,"Infection Data, Percentage Infection Relative to Appropriate DMSO Control","[1]; Exp 2 (SMW492), 5 uM",0.99% and 1.92%
same,"Infection Data, Percentage Infection Relative to Appropriate DMSO Control","[1]; Exp 2 (SMW492), 10 uM",47.59% and 42.39%
same,"Infection Data, Percentage Infection Relative to Appropriate DMSO Control","[1]; Exp 2 (SMW492), 25 uM",0.98% and 2.39%
same,"Infection Data, Percentage Infection Relative to Appropriate DMSO Control","[1]; Exp 2 (SMW492), 50 uM",3.90% and 1.08%
same,Percentage Inhibition Average 1 μM,"[1]; SARS2, 1 μM",27.88%
same,Screening data (Relative infection to DMSO controls) Average 1 μM,"[1]; SARS2, 1 μM, 100=DMSO control",72.12
same,Percentage Inhibition Average 5 μM,"[1]; SARS2, 5 μM",99.23%
same,Screening data (Relative infection to DMSO controls) Average 5 μM,"[1]; SARS2, 5 μM, 100=DMSO control",0.77
same,Percentage Inhibition Average 10 μM,"[1]; SARS2, 10 μM",78.36%
same,Screening data (Relative infection to DMSO controls) Average 10 μM,"[1]; SARS2, 10 μM, 100=DMSO control",21.64
same,Percentage Inhibition Average 25 μM,"[1]; SARS2, 25 μM",99.97%
same,Screening data (Relative infection to DMSO controls) Average 25 μM,"[1]; SARS2, 25 μM, 100=DMSO control",0.03
same,Percentage Inhibition Average 50 μM,"[1]; SARS2, 50 μM",99.16%
same,Screening data (Relative infection to DMSO controls) Average 50 μM,"[1]; SARS2, 50 μM, 100=DMSO control",0.84
same,Average (relative infection to DMSO over the 5 tested concentrations),"[1]; SARS2, average over 1 to 50 uM, 100=DMSO control",19.08
same,"Relative cell count to DMSO controls, Average 1 μM","[2]; 1 μM, toxicity data, 100=DMSO control",103.33
same,"Relative cell count to DMSO controls, Average 5 μM","[2]; 5 μM, toxicity data, 100=DMSO control",131.17
same,"Relative cell count to DMSO controls, Average 10 μM","[2]; 10 μM, toxicity data, 100=DMSO control",126.44
same,"Relative cell count to DMSO controls, Average 25 μM","[2]; 25 μM, toxicity data, 100=DMSO control",117.77
same,"Relative cell count to DMSO controls, Average 50 μM","[2]; 50 μM, toxicity data, 100=DMSO control",107.72
same,"Toxicity Data, Average, Mean percentage relative to DMSO control","[2]; n=4, 1 uM",103.33%
same,"Toxicity Data, Average, Mean percentage relative to DMSO control","[2]; n=4, 5 uM",131.17%
same,"Toxicity Data, Average, Mean percentage relative to DMSO control","[2]; n=4, 10 uM",126.44%
same,"Toxicity Data, Average, Mean percentage relative to DMSO control","[2]; n=4, 25 uM",117.77%
same,"Toxicity Data, Average, Mean percentage relative to DMSO control","[2]; n=4, 50 uM",107.72%
same,"Toxicity Data, Percentage Relative to Appropriate DMSO Control","[2]; Exp 1 (SMW491), 1 uM",87% and 86%
same,"Toxicity Data, Percentage Relative to Appropriate DMSO Control","[2]; Exp 1 (SMW491), 5 uM",124% and 137%
same,"Toxicity Data, Percentage Relative to Appropriate DMSO Control","[2]; Exp 1 (SMW491), 10 uM",126% and 116%
same,"Toxicity Data, Percentage Relative to Appropriate DMSO Control","[2]; Exp 1 (SMW491), 25 uM",118% and 101%
same,"Toxicity Data, Percentage Relative to Appropriate DMSO Control","[2]; Exp 1 (SMW491), 50 uM",84% and 108%
same,"Toxicity Data, Percentage Relative to Appropriate DMSO Control","[2]; Exp 2 (SMW492), 1 uM",100% and 140%
same,"Toxicity Data, Percentage Relative to Appropriate DMSO Control","[2]; Exp 2 (SMW492), 5 uM",120% and 143%
same,"Toxicity Data, Percentage Relative to Appropriate DMSO Control","[2]; Exp 2 (SMW492), 10 uM",134% and 130%
same,"Toxicity Data, Percentage Relative to Appropriate DMSO Control","[2]; Exp 2 (SMW492), 25 uM",117% and 135%
same,"Toxicity Data, Percentage Relative to Appropriate DMSO Control","[2]; Exp 2 (SMW492), 50 uM",118% and 121%
same,"Relative cell count to DMSO controls, Average (for correlation analysis)",[2]; average value over the 5 tested concentrations (1 to 50 uM),117.29
